According to patent US20170071991A1, “Oncolytic Virus and Aurora Kinase Inhibitor for the Treatment of Cancer” (priority 2014, published 2017):
Entries after “also recorded” stand apart in the source; their conditions may differ.

Columns and labels:
[1] = pro-drug; cited from earlier work
[2] = human plasma; cited from earlier work
[3] = tested on: human acute myelogenous leukemia (HL60) nude mice xenografts; settings: cited from earlier work
[4] = tested on: human colon cancer (HCT116) nude rat xenograft; settings: HCT116 nude rat xenograft model; cited from earlier work
[5] = tested on: multiple tumor cell lines; settings: values as low as; read-out: GI50, growth of multiple tumor cell lines; cited from earlier work
[6] = tested on: S462TY flank xenografts; assay: S462TY nude mouse flank xenograft, single HSV1716 dose plus MLN8237 20 mg/kg twice daily; assay type: in vivo, nude mice
Protocol: Single intratumoral (ITu) injections of 1.0×10^7 pfu HSV1716 or PBS or single intravenous (IV) injections of 9.0×10^7 pfu HSV1716 or PBS were administered on day 7 and tumor growth and survival were monitored.

[7] = cited from earlier work
[8] = tested on: SK-N-AS flank xenografts (neuroblastoma); assay: SK-N-AS nude mouse flank xenograft model; assay type: in vivo, nude mice
Text: SK-N-AS cells were derived from a bone marrow metastasis […] of a child with poorly differentiated embryonal neuroblastoma and the cell line readily formed flank xenografts in nude mice. […] The schema used for each of the 4 groups is shown in FIG. 13 and tumor growth and survival were monitored throughout the experiment.

[9] = tested on: S462TY xenografts; assay: S462TY nude mouse xenograft, multiple cycles of lower dose MLN8237 plus HSV1716; assay type: in vivo, nude mice; settings: multiple weekly ITu HSV1716 1×10^7 pfu and/or MLN8237 10 mg/kg once daily 5-day cycles
Text: The schema used for each of the 4 groups is shown in FIG. 8 and tumor growth and survival were monitored throughout the experiment.

[10] = tested on: senescence-associated beta-galactosidase in S462TY xenografts; assay: Senescence detection with X-gal (SA-β-gal) in S462TY xenografts
[11] = tested on: HSV1716 titre in S462TY xenografts; assay: HSV1716 titration of S462TY xenograft tumours after ITu injection; assay type: in vivo, mice
Text: MLN8237-treated or control, untreated mice with S462TY xenografts received ITu HSV1716 and tumours, removed at 2 and 48 hrs after virus administration, were titrated (FIG. 18).

[12] = tested on: HSV1716 uptake by S462TY cells; assay: Quantitative PCR for HSV1716 genomes in S462TY cells in vitro; assay type: cell-based; settings: 30 min post infection, acid wash
Protocol: S462TY cells were infected with HSV1716 and an acid wash after 30 mins was used to remove residual free virus which had not penetrated intracellularly.

[13] = tested on: receptors and ion channels; settings: cited from earlier work
[14] = S462TY flank xenografts, best response for at least 21 days, last response day 53, route as in label
[15] = S462TY flank xenografts, day 53, route as in label

SMILES: CCN(CCCOc1ccc2c(Nc3cc(CC(=O)Nc4cccc(F)c4)n[nH]3)ncnc2c1)CCOP(=O)(O)O [AZD1152]
- solubility [1]: highly soluble
- cleavage of pro-drug to active drug substance AZD1152 hydroxy-QPA [2]: cleaved completely

SMILES: Cc1cc(Nc2cc(N3CCN(C)CC3)nc(Sc3ccc(NC(=O)C4CC4)cc3)n2)n[nH]1 [MK0457]
- reduction in tumor volume when compared with controls [3]: 98%
- tumor regression, rats treated [4]: four of the seven rats

SMILES: COc1cc(Nc2ncc3c(n2)-c2ccc(Cl)cc2C(c2c(F)cccc2OC)=NC3)ccc1C(=O)O [MLN8237]
- GI50 [5]: ≥ 16 nM
- tumor growth of S462TY xenografts (FIG. 5a) ([6]; HSV1716 single ITu 1.0×10^7 pfu day 7 and/or MLN8237 20 mg/kg oral twice daily, 42 days): initially effective at preventing growth of the xenografts
- survival compared to vehicle/PBS-treated controls (FIG. 6) ([6]; HSV1716 single ITu 1×10^7 pfu day 7 and/or MLN8237 20 mg/kg twice daily): improved survival
- PR-->PD, evaluable mice [6, 14]: 0
- SD-->PD, evaluable mice [6, 14]: 6
- PD (Progressive Disease), evaluable mice ([6]; S462TY flank xenografts, day 53 (11 days after last treatment), MLN8237 20 mg/kg oral twice daily 5 d/week 42 days, HSV1716 single ITu 1.0×10^7 or IV 9.0×10^7 pfu day 7, route as in label): 4
- CR (Complete Response), evaluable mice [6, 15]: 0
- PR (Partial Response), evaluable mice [6, 15]: 0
- day by which most of the mice had been sacrificed ([6]; single agents: IV HSV1716, MLN8237 twice daily doses): ≤ 60 days
- oral availability and absorption [7]: orally available and rapidly absorbed
- tumor growth, comparison between the four groups on day 21 (FIG. 16) ([8]; day 21): highly significant reduction in tumor growth
- mice still alive on day 25 ([8]; day 25, single agents): approximately 50%
- tumor growth of SK-N-AS xenografts (FIG. 14) ([8]; five weekly ITu HSV1716 1×10^7 pfu and/or MLN8237 10 mg/kg once daily 5-day cycles): reduced the growth
- tumor growth of S462TY xenografts (FIG. 9, 10) [9]: reduced the growth
- sections staining after incubation with X-gal (MLN8237-induced senescence) [10]: 1/18
- free input virus detected in MLN8237-treated tumours ([11]; 2 hrs after ITu HSV1716): less of the free input virus detected
- virus titre in MLN8237-treated compared to untreated control tumors ([11]; 48 hrs after ITu HSV1716): no apparent increase in virus titre
- uptake/infection rate of HSV1716 (intracellular genomes, Q-PCR normalised to GAPDH) [12]: significantly increases intracellular HSV1716 genomes; also recorded: significantly higher uptake/infection rate
- cross-reactivity in broad screen of receptors and ion channels [13]: no significant cross-reactivity
